Measured values published in patent US20080064727A1, “Crystalline forms of tiagabine hydrochloride” (Cephalon, Inc., priority 2006, published 2008).
Entries after “also recorded” stand apart in the source; their conditions may differ. Each block holds one molecule with its values, some of them ahead of it.

How the values were obtained:
Assay type in all cases: physicochemical
[1] = Solid-form stability on drying under vacuum, resulting form by XRPD analysis
Procedure: (§1) X-ray powder diffraction (XRPD) analyses were performed using the following instruments & methods:
(§2) A. Shimadzu XRD-6000 X-ray powder diffractometer using Cu Kα radiation. The instrument was equipped with a long fine focus X-ray tube. The tube voltage and amperage were set to 40 kV and 40 mA, respectively. The divergence and scattering slits were set at 1° and the receiving slit was set at 0.15 mm. Diffracted radiation was detected by a NaI scintillation detector. A θ-2θ continuous scan at 3°/min (0.4 sec/0.02° step) from 2.5 to 40° 2θ was used. A silicon standard was analyzed to check the instrument alignment. Data were collected and analyzed using XRD-6000 v. 4.1. Samples were prepared for analysis by placing them in a sample holder.
(§3) B. Inel XRG-3000 diffractometer, equipped with a CPS (Curved Position Sensitive) detector with a 2 Orange of 120°. Real time data were collected using Cu—Kα radiation starting at approximately 4° 2θ at a resolution of 0.03° 2θ. The tube voltage and amperage were set to 40 kV and 30 mA, respectively. The monochromator slit was set at 5 mm by 80 μm or 160 μm. […] Samples were prepared for analysis by packing them into thin-walled glass capillaries. Each capillary was mounted onto a goniometer head that is motorized to permit spinning of the capillary during data acquisition. The acquisition time was between 5 to 10 min. Instrument calibration was performed using a silicon reference standard.
(§4) D. Bruker D-8 Discover diffractometer and Bruker's General Area Diffraction Detection System (GADDS, v. 4.1.20). An incident beam of Cu—Kα radiation was produced using a fine-focus tube (40 kV, 40 mA), a Gobel mirror, and a 0.5 mm double-pinhole collimator. The samples were positioned for analysis by securing the well plate to a translation stage and moving each sample to intersect the incident beam. Alternatively, the sample was packed between 3-micron thick films to form a portable disc-shaped specimen, and the specimen was loaded in a holder secured to a translation stage. The samples were analyzed using a transmission geometry. The incident beam was scanned and rastered over the sample during the analysis to optimize orientation statistics. A beam-stop was used to minimize air scatter from the incident beam at low angles. Diffraction patterns were collected using a Hi-Star area detector located 15 cm from the sample and processed using GADDS. The intensity in the GADDS image of the diffraction pattern was integrated using a step size of 0.04° 2θ. The integrated patterns display diffraction intensity as a function of 2θ. Prior to the analysis a silicon standard was analyzed to verify the Si 111 peak position.
(§5) E. Peak Picking Methods. Any XRPD files generated from Inel or Bruker XRPD instruments were converted to Shimadzu .raw file using File Monkey version 3.0.4. The Shimadzu .raw file was processed by the Shimadzu XRD-6000 version 4.1 software to automatically find peak positions. The “peak position” means the maximum intensity of a peaked intensity profile. The following processes were used with the Shimadzu XRD-6000 “Basic Process” version 2.6 algorithm: • Smoothing was done on all patterns. • The background was subtracted to find the net, relative intensity of the peaks. • A peak from Cu K alpha2 (1.5444 Å) wavelength was subtracted from the peak generated by Cu K alpha1 (1.5406 Å) peak at 50% intensity for all patterns. Differential Scanning Calorimetry

[2] = Solid-form stability on storage, resulting form by XRPD analysis; settings: for Form indicated by XRPD analysis after storage / Form converted to during storage: hydrochloride; for Form converted to during storage: during storage (summary statement, conditions not given)
Procedure: as §1, §2, §3, §4, §5

[3] = Solid-form stability on heating, resulting form by XRPD analysis
Procedure: as §1, §2, §3
C. Shimadzu XRD-6000 X-ray powder diffractometer equipped with an Anton Paar HTK 1200 high temperature stage (Variable-temperature XRPD (VT-XRPD)). The sample was packed in a ceramic holder and analyzed form 2.5 to 40° 2θ at 3°/min (0.4 sec/0.02° step). The heating rate was 10° C./min. A silicon standard was analyzed to check the instrument alignment. Temperature calibration was performed using vanillin and sulfapyridine USP melting point standards. Data were collected and analyzed using XPD-6000 v.4.1. The system was kept under a purge of nitrogen during the analysis.
as §4
E. Peak Picking Methods. Any XRPD files generated from Inel or Bruker XRPD instruments were converted to Shimadzu .raw file using File Monkey version 3.0.4. The Shimadzu .raw file was processed by the Shimadzu XRD-6000 version 4.1 software to automatically find peak positions. The “peak position” means the maximum intensity of a peaked intensity profile. The following processes were used with the Shimadzu XRD-6000 “Basic Process” version 2.6 algorithm: • Smoothing was done on all patterns. • The background was subtracted to find the net, relative intensity of the peaks. • A peak from Cu K alpha2 (1.5444 Å) wavelength was subtracted from the peak generated by Cu K alpha1 (1.5406 Å) peak at 50% intensity for all patterns. […]

[4] = dried under vacuum at room temperature for less than one day, hydrochloride
[5] = stored two months, ambient temperature and humidity
[6] = stored five (5) days, about 40° C., about 89% relative humidity
[7] = stored five (5) days, about 60° C., about 75% relative humidity
[8] = stored five (5) days, 2-8° C., about 96% relative humidity
[9] = under vacuum at room temperature for about four (4) days, hydrochloride
[10] = dried about 14 hours under vacuum at about 65° C., hydrochloride

- Form converted to during storage [2]: Form B
- Form indicated by XRPD analysis after storage [2, 6]: tiagabine HCl Form B
- Form indicated by XRPD analysis after storage [2, 7]: tiagabine HCl Form B
Structure (SMILES): Cc1ccsc1C(=CCCN1CCC[C@@H](C(=O)O)C1)c1sccc1C.Cl [Form P, tiagabine hydrochloride]

- Form indicated by XRPD analysis after drying [1, 10]: a mixture of tiagabine HCl Forms S and B
Structure (SMILES): Cc1ccsc1C(=CCCN1CCC[C@@H](C(=O)O)C1)c1sccc1C.Cl [Form S mixed with Form B, tiagabine hydrochloride]

- Form indicated by XRPD analysis after drying [1, 9]: tiagabine HCl Form C
- Form indicated by XRPD analysis after heating ([3]; heated to about 115-120° C. for approximately 10 minutes): tiagabine HCl Form B
Structure (SMILES): Cc1ccsc1C(=CCCN1CCC[C@@H](C(=O)O)C1)c1sccc1C.Cl [Form T, tiagabine hydrochloride]

- Form indicated by XRPD analysis after drying [1, 4]: Form Y
Structure (SMILES): Cc1ccsc1C(=CCCN1CCC[C@@H](C(=O)O)C1)c1sccc1C.Cl [Form Y, tiagabine hydrochloride]
- Form indicated by XRPD analysis after heating ([3]; heated at 100-110° C. for about 10 minutes): Form B containing a minor amount of Form Q

- Form indicated by XRPD analysis after heating ([3]; heated at 90-95° C. for about 10 minutes, listed as From Z, hydrochloride): a mixture of Forms B and Q
Structure (SMILES): Cc1ccsc1C(=CCCN1CCC[C@@H](C(=O)O)C1)c1sccc1C.Cl [Form Z, tiagabine hydrochloride]

Second part, the molecule before the results:

Structure (SMILES): Cc1ccsc1C(=CCCN1CCC[C@@H](C(=O)O)C1)c1sccc1C.Cl [Form AA, tiagabine hydrochloride]
- Form indicated by XRPD analysis after drying [1, 4]: Form AA

Structure (SMILES): Cc1ccsc1C(=CCCN1CCC[C@@H](C(=O)O)C1)c1sccc1C.Cl [Form C, tiagabine hydrochloride]
- Time stable when stored ([2]; ambient temperature and humidity): 2 months
- Form indicated by XRPD analysis after storage [2, 5]: tiagabine HCl Form C

Structure (SMILES): Cc1ccsc1C(=CCCN1CCC[C@@H](C(=O)O)C1)c1sccc1C.Cl [Form D containing a minor amount of Form B] [tiagabine hydrochloride]
- Form indicated by XRPD analysis after storage [2, 6]: a mixture of tiagabine HCl Form B and a trace of Q
- Form indicated by XRPD analysis after storage [2, 7]: tiagabine HCl Form B and a trace of Q

Structure (SMILES): Cc1ccsc1C(=CCCN1CCC[C@@H](C(=O)O)C1)c1sccc1C.Cl [Form D, tiagabine hydrochloride]
- Form indicated by XRPD analysis after drying [1, 4]: a mixture of Form D containing a minor amount of Form A
- Form converted to during storage [2]: tiagabine hydrochloride Form B, sometimes mixed with tiagabine hydrochloride Form Q
- Form indicated by XRPD analysis after storage [2, 8]: a mixture of tiagabine HCl Forms B and Q
- Form indicated by XRPD analysis after storage [2, 5]: a mixture of tiagabine HCl Forms Q and B

Structure (SMILES): Cc1ccsc1C(=CCCN1CCC[C@@H](C(=O)O)C1)c1sccc1C.Cl [Form H, tiagabine hydrochloride]
- Form indicated by XRPD analysis after drying [1, 9]: Form Q
- Form indicated by XRPD analysis after heating ([3]; heated at 90-95° C. for about 10 minutes, hydrochloride): Form Q containing a minor amount of Form B

Structure (SMILES): Cc1ccsc1C(=CCCN1CCC[C@@H](C(=O)O)C1)c1sccc1C.Cl [Form I, tiagabine hydrochloride]
- Form converted to during storage [2]: a mixture of tiagabine hydrochloride Forms S and B
- Form indicated by XRPD analysis after storage [2, 5]: a mixture of tiagabine HCl Forms S and B; also recorded: a mixture of Form S+Form B

Structure (SMILES): Cc1ccsc1C(=CCCN1CCC[C@@H](C(=O)O)C1)c1sccc1C.Cl [Form J, tiagabine hydrochloride]
- Form converted to during storage [2]: a mixture of tiagabine hydrochloride Forms Q and B
- Form indicated by XRPD analysis after storage [2, 5]: a mixture of tiagabine HCl Forms Q and B

Structure (SMILES): Cc1ccsc1C(=CCCN1CCC[C@@H](C(=O)O)C1)c1sccc1C.Cl [Form M, tiagabine hydrochloride]
- Form converted to during storage [2]: a mixture of tiagabine hydrochloride Forms B and Q
- Form indicated by XRPD analysis after storage [2, 5]: a mixture of tiagabine HCl Forms B and Q

Structure (SMILES): Cc1ccsc1C(=CCCN1CCC[C@@H](C(=O)O)C1)c1sccc1C.Cl [Form P containing Form B, tiagabine hydrochloride]
- Form indicated by XRPD analysis after drying [1, 10]: a mixture of tiagabine Form P and B
- Form indicated by XRPD analysis after storage [2, 8]: a mixture of tiagabine HCl Forms P and B

Structure (SMILES): Cc1ccsc1C(=CCCN1CCC[C@@H](C(=O)O)C1)c1sccc1C.Cl [Form P containing a minor amount of Form B] [tiagabine hydrochloride]
- Form indicated by XRPD analysis after drying ([1]; dried about 15 hours under vacuum at 40-95° C.): a mixture of tiagabine HCl Forms P and B
- Form indicated by XRPD analysis after drying [1, 9]: a mixture of tiagabine HCl Forms P and B
